Source: US20230241226A1, “COMPOUNDS FOR TARGETED DEGRADATION OF CARRIER PROTEINS AND USES THEREOF” (CeMM - Forschungszentrum für Molekulare Medizin GmbH, priority 2019, published 2023)

Assays:
dTAG-HA SLC16A1 = target: T1, dTAG-HA SLC16A1 (Homo sapiens, UniProt P53985+Q96SW2); test: Targeted degradation of dTAG-tagged SLC16A1 (western blot); format: cell-based; conditions: HAP1, 0.5 µM, 24, 48 or 72 hours
T1 construct: expressed in transfected cells
Procedure: (§1) (C)HAP1 cells expressing dTAG-HA SLC1A5, 2A3, 30A9, 35B2, MTCH2, and 33A1 were treated for 24 hours with 0.5 µM of dTAG7 or dTAG13, as indicated. HAP1 cells expressing dTAG-HA SLC2A1 and 16A1 were treated for 24 hrs with 0.5 µM of dTAG7. HAP1 cell lines expressing dTAG-HA SLC39A7, dTAG-HA SLC4A4, and SLC7A3-dTAG-HA were treated for 48 hrs with 0.5 µM of dTAG13.
(§2) SLC1A5, SLC2A1, SLC2A3, SLC16A1, SLC38A1, SLC38A2 were obtained as gateway-compatible pENTR/pDONR vectors from the Harvard PlasmID Repository. SLC39A7 was obtained from Dharmacon, GE Healthcare. The following vectors were synthesized by Genescript: SLC4A4, SLC7A3, SLC38A9, SLC25A1, SLC9A1, SLC9A2, SLC9A3, SLC9A4, SLC9A5, SLC9A6, SLC9A7, SLC9A8, and SLC9B2. […]
(§3) For immunoblotting, whole cell extracts were prepared using RIPA lysis buffer (25 mM Tris/HCl pH 7.6, 150 mM NaCl, 1% NP-40, 1% sodium deoxycholate, 0.1% SDS, EDTA-free protease inhibitor (Roche) and phosphatase inhibitors 2+3 (Sigma- Aldrich)). […] Protein extracts were quantified and normalized using the BCA assay (Thermo Scientific). […]
(§4) SLCs were ectopically expressed as fusions to a mutated FKBP domain, also known as the dTAG system. […]

dTAG-HA SLC2A1 = target: T2, dTAG-HA SLC2A1 (Homo sapiens, UniProt P11166+Q96SW2); test: Targeted degradation of dTAG-tagged SLC2A1 (western blot); format: cell-based; conditions: HAP1, 0.5 µM, 24, 48 or 72 hours
T2 construct: expressed in transfected cells
T2 sequence (P11166 with tags, fused parts or gaps): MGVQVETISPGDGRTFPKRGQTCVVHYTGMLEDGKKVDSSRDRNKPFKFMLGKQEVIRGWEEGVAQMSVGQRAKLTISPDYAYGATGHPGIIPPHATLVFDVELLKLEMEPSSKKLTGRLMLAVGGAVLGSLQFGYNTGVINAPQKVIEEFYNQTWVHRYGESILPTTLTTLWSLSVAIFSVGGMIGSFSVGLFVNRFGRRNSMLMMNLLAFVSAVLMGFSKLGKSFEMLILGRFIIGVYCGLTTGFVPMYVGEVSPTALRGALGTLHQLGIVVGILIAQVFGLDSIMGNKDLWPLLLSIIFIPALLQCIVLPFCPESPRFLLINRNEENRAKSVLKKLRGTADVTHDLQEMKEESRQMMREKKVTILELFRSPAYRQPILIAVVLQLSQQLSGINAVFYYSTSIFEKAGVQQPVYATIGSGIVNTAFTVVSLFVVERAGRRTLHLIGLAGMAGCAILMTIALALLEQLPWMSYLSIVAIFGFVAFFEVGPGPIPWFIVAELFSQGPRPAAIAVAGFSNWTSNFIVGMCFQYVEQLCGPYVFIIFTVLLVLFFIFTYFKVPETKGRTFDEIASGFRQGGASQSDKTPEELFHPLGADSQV
T2 sequence (Q96SW2 whole entry): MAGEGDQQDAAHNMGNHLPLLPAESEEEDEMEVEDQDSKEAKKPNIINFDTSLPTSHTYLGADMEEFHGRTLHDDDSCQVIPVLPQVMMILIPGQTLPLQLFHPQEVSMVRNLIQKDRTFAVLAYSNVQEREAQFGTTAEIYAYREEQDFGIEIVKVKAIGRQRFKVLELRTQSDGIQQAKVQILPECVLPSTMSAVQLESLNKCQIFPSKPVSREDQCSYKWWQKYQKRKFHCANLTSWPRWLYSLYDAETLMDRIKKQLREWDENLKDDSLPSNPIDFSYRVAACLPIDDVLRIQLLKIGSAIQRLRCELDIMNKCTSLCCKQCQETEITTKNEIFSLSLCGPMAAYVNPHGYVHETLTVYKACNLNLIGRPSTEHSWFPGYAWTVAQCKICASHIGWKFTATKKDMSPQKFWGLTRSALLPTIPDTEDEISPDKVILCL
T2 sequence (Q16531 whole entry partner): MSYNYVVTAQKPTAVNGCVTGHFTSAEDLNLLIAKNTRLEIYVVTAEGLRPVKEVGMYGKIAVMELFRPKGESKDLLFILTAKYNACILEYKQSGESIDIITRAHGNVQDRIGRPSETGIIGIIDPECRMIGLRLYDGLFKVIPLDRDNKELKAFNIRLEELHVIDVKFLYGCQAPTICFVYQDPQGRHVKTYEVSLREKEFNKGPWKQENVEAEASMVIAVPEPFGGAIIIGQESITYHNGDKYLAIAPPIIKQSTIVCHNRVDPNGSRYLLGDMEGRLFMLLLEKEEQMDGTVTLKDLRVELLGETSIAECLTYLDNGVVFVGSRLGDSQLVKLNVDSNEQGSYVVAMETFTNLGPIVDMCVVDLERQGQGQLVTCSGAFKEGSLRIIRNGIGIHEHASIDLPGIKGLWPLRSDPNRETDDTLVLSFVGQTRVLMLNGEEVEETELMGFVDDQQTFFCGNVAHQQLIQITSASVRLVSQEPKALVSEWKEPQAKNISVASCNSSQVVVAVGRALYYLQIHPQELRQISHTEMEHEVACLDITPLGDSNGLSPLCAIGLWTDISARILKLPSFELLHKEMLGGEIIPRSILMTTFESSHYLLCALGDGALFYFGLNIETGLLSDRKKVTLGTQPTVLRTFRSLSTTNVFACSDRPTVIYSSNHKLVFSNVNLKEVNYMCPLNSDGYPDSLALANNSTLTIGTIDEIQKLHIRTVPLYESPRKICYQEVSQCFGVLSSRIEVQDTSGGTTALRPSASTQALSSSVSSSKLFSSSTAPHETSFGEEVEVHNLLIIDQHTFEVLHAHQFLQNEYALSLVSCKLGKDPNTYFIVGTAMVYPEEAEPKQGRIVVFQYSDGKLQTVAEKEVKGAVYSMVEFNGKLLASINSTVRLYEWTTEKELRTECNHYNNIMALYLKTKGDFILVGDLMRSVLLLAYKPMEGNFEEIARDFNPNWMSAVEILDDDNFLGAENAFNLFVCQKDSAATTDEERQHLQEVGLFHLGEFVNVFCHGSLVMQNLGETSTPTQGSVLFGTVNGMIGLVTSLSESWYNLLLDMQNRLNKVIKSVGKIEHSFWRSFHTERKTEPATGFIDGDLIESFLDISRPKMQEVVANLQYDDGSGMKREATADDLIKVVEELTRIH
Procedure: as §1, §2, §3, §4

Strep/HA SLC9A9 = target: T3, Strep/HA SLC9A9 (Homo sapiens, UniProt Q8IVB4); test: Selectivity across SLC9 family: degradation of exogenous Strep/HA SLC9A9; format: cell-based; conditions: HAP1; 250 or 750 nM; 16 hours
T3 construct: expressed in transfected cells; host or cells: HAP1 (lentiviral, pRRL Strep-HA)
T3 sequence (Q8IVB4 whole entry): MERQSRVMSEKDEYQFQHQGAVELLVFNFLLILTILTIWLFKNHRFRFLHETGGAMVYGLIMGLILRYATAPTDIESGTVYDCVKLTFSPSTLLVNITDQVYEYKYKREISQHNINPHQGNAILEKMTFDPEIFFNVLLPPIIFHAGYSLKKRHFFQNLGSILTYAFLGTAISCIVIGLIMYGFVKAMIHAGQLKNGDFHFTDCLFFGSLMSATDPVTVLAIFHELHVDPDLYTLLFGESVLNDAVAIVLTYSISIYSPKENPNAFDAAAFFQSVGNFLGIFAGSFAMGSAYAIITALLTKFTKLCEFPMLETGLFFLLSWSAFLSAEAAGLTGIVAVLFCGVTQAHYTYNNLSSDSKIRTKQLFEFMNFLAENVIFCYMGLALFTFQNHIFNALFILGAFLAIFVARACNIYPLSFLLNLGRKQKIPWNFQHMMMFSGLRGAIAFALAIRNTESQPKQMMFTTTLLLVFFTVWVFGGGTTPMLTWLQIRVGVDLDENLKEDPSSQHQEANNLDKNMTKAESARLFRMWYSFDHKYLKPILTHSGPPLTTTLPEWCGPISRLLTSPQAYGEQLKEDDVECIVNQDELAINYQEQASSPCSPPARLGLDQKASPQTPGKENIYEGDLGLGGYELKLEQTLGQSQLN
Procedure: (§5) (E) Selectivity of d9A1-2 was tested across HAP1 cell lines expressing Strep/HASLC9A1, 9A4, 9A5, 9A8, 9A2, 9B2, 9A6, 9A9, and 9A3. Cells were treated with varying concentrations of d9A1-2 for 16 hours, after which degradation of the exogenous SLCs was monitored.
(§6) SLC1A5, SLC2A1, SLC2A3, SLC16A1, SLC38A1, SLC38A2 were obtained as gateway-compatible pENTR/pDONR vectors from the Harvard PlasmID Repository. SLC39A7 was obtained from Dharmacon, GE Healthcare. The following vectors were synthesized by Genescript: SLC4A4, SLC7A3, SLC38A9, SLC25A1, SLC9A1, SLC9A2, SLC9A3, SLC9A4, SLC9A5, SLC9A6, SLC9A7, SLC9A8, and SLC9B2. SLC30A9, SLC33A1, SLC35B2, SLC25A26, and MTCH2 were a gift from the RESOLUTE consortium. cDNAs were transferred into gateway-compatible lentiviral expression vectors: pLX305 dTAG vectors (Addgene #91797/8) or pRRL Strep-HA (described previously43, EF1a promotor driven expression) using LR recombination (ThermoFisher Scientific). […]
as §3

[1] = tested on: Peripheral blood mononuclear cells (PBMCs); test: Cell viability assay (CellTiter-Glo), single dose, FIG. 10; format: cell-based, human; conditions: patient samples; 75 nM d9A1-2 vs 7.5 µM EIPA; 72 hours
Procedure: FIG. 10: Viability assay Relative viability of Peripheral blood mononuclear cells (PBMCs) after single-dose treatment with the d9A1-2 molecule or ethyl-isopropyl amiloride (EIPA). PBMCs were isolated from healthy donors and patients with acute myeloid leukemia, multiple myeloma, B cell lymphoma and Hodgkin’s lymphoma, chronic lymphocytic leukeumia. Viability was assayed using the CellTiter-Glo assay, 72 hours post treatment.
Peripheral blood mononuclear cells (PBMCs) were isolated using Lymphoprep (Stem Cell Technologies) from healthy donors and patients with acute myeloid leukemia, multiple myeloma, B cell lymphoma, Hodgkin’s lymphoma, chronic lymphocytic leukeumia. For comparison of different samples, compounds were transferred on black 384-well plates using an acoustic liquid handler (Echo, Labcyte).
Cells were seeded in these plates at densities of 20,000 cells per well in RPMI media (Gibco), supplemented with 10% fetal calf serum (Gibco). Viability was measured after 72 hours using the CellTiter-Glo assay (Promega) on a plate reader (SpectraMax i3x, Molecular Probes). All measurements were done in technical quadruplicates. Toxicity achieved by treatment with d9A1-2 or ethyl-isopropyl amiloride (EIPA) (Sigma) was normalized to the reference controls. Dose response fitting curves were obtained and plotted using GraphPad Prism V8. Data is presented as mean +/- SD.

Strep/HA SLC9A8 = target: T4, Strep/HA SLC9A8 (Homo sapiens, UniProt Q9Y2E8); test: Selectivity across SLC9 family: degradation of exogenous Strep/HA SLC9A8; format: cell-based; conditions: HAP1; 250 or 750 nM; 16 hours
T4 construct: expressed in transfected cells; host or cells: HAP1 (lentiviral, pRRL Strep-HA; cDNA synthesized by Genescript)
T4 sequence (Q9Y2E8 whole entry): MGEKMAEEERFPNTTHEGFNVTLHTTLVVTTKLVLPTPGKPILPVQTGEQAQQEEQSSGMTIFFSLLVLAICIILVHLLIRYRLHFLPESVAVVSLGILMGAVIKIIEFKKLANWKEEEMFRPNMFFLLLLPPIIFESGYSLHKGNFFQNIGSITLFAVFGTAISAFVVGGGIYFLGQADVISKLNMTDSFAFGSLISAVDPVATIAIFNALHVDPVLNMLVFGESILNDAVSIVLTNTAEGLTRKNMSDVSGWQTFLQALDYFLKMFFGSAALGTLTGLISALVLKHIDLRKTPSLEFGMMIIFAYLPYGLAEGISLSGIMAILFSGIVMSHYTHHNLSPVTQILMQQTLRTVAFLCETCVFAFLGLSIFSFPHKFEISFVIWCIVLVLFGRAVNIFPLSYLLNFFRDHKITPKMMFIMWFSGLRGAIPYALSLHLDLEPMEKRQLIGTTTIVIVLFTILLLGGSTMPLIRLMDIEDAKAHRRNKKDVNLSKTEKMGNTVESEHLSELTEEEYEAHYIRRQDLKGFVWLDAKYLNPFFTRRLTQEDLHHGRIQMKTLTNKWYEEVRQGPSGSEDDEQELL
Procedure: as §5, §6, §3

Strep/HA SLC9A3 = target: T5, Strep/HA SLC9A3 (Homo sapiens, UniProt P48764); test: Selectivity across SLC9 family: degradation of exogenous Strep/HA SLC9A3; format: cell-based; conditions: HAP1; 250 or 750 nM; 16 hours
T5 construct: expressed in transfected cells; host or cells: HAP1 (lentiviral, pRRL Strep-HA; cDNA synthesized by Genescript)
T5 sequence (P48764 26-834): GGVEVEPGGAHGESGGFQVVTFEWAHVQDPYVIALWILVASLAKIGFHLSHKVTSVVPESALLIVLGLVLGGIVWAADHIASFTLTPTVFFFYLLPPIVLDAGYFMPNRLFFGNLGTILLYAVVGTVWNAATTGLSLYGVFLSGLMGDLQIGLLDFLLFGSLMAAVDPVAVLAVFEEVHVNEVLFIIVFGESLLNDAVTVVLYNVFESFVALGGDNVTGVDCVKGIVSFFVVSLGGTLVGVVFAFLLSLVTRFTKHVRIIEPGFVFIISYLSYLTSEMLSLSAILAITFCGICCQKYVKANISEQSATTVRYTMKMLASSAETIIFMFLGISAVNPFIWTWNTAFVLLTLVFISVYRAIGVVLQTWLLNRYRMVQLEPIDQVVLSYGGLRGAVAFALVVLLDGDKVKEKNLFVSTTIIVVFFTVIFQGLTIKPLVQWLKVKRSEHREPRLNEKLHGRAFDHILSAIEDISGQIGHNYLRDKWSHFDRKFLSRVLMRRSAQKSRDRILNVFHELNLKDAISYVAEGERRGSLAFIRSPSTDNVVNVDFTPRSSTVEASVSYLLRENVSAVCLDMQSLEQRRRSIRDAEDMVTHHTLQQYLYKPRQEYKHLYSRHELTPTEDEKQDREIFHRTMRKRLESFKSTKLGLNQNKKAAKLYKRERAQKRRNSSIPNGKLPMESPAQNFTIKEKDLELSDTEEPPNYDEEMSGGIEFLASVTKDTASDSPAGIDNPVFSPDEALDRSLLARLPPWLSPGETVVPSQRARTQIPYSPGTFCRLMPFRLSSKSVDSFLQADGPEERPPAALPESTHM
Procedure: as §5, §6, §3

T1 sequence (P53985 with tags, fused parts or gaps): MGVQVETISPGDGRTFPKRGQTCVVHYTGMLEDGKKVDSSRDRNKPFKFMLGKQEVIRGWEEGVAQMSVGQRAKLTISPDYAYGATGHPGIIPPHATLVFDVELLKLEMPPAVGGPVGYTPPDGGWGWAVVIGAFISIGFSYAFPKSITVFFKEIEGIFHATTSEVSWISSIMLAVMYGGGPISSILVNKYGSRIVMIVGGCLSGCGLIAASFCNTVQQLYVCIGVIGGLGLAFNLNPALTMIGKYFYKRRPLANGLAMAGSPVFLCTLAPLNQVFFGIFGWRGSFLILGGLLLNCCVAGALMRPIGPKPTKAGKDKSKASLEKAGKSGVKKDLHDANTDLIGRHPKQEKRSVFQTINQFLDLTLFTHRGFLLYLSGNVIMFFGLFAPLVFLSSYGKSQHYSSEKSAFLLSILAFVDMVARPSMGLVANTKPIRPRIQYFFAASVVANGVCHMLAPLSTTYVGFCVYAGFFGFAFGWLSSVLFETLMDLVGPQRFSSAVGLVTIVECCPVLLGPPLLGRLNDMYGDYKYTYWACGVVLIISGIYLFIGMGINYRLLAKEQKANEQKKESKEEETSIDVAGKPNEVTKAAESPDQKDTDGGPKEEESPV
T1 sequence (Q96SW2 whole entry): as the sequence (Q96SW2 whole entry) above
T1 sequence (Q16531 whole entry partner): as the sequence (Q16531 whole entry partner) above

Compound | reversibility of degradation of the target SLC (dTAG-HA SLC16A1) | reversibility of degradation of the target SLC (dTAG-HA SLC2A1) | abundance of exogenous SLC9A9 (Strep/HA SLC9A9) | toxicity (relative viability) in patient PBMCs compared with EIPA [1] | abundance of exogenous SLC9A8 (Strep/HA SLC9A8) | abundance of exogenous SLC9A3 (Strep/HA SLC9A3)
CC[C@H](C(=O)N1CCCC[C@H]1C(=O)O[C@H](CCc1ccc(OC)c(OC)c1)c1ccccc1OCC(=O)NCCCOCCOCCOCCCNC(=O)COc1cccc2c1C(=O)N(C1CCC(=O)NC1=O)C2=O)c1cc(OC)c(OC)c(OC)c1 (stereo partly drawn) [dTAG7] | reversible degradation | reversible degradation |  |  |  | 
Cc1cc(-c2ccc(C(=O)NCCOCCOCCOCCOCCNc3cccc4c3C(=O)N(C3CCC(=O)NC3=O)C4=O)cc2N2CCC(c3[nH]cnc3C)CC2)ccc1F (stereo not drawn) [d9A1-2] |  |  | not significantly affected | considerably more toxic than 7.5 µM EIPA | not significantly affected | not significantly affected
